Measurements from patent EP4790066A1, “GLP-1R/GIPR/GCGR TRIPLE AGONIST ANALOGUE AND USE THEREOF” (Shenzhen Bay Laboratory, priority 2023, dated 2025).
*1 amine or outer side, *2 acyl side, *3 side chain or, on linkers, in order; H or OH if unused. Where a SMILES comes first, the peptide text is derived from it. Bridges are numbered along the chain shown (N, C = ends). [ ]: non-standard residue; d: D form. X1 = O=C(O)CCCCCCCCCCCCCCCCCCC(=O)N[C@@H](CCCCNC(=O)COCCOCCNC(=O)COCCOCCNC(=O)CCC(=O)N(CCNC(=O)C[*:1])CCNC(=O)C[*:2])C(=O)O; Phe(2-F) = N[C@@H](Cc1ccccc1F)C(=O)O; αMeL = CC(C)C[C@](C)(N)C(=O)O; αMeK = C[C@](N)(CCCCN)C(=O)O; αMeS = C[C@](N)(CO)C(=O)O; Aib = CC(C)(N)C(=O)O

Legend:
GLP-1R = target: T1, GLP-1R (Homo sapiens, UniProt P43220); assay: CreLuc method (CRE-luciferase reporter), HEK293/pGM-CREB-L-Luc/GLP-1R pool; assay type: cell-based; settings: 6 h incubation, read-out: EC50 (pM) for each receptor GLP-1R
T1 construct: expressed in transfected cells
T1 sequence (P43220 24-463, species assumed): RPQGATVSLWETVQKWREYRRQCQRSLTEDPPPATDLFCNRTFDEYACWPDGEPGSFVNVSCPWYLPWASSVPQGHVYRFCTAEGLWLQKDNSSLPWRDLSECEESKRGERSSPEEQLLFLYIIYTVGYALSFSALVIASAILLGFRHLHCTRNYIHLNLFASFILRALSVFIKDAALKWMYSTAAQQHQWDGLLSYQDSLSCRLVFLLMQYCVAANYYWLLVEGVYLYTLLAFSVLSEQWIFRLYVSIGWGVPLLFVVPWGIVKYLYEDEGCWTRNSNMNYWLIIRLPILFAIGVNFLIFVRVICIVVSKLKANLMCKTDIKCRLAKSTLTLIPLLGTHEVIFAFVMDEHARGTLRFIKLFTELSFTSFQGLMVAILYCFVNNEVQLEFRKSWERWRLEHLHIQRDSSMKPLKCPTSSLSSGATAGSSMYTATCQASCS
In short: (§1)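 Stable HEK293 pools co-expressing each receptor with a CRE-luciferase reporter were plated at 20,000 cells/well in freestyle medium and treated with compound dilution series for 6 h at 37 °C. Luminescence was read with ONE-GLO to derive EC50.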

GIPR [1] = target: T2, GIPR (Homo sapiens, UniProt P48546); assay: CreLuc method (CRE-luciferase reporter), HEK293/pGM-CREB-L-Luc/GIPR pool; assay type: cell-based; settings: 6 h incubation, read-out: EC50 (pM) for each receptor GIPR
T2 construct: expressed in transfected cells
T2 sequence (P48546 22-466): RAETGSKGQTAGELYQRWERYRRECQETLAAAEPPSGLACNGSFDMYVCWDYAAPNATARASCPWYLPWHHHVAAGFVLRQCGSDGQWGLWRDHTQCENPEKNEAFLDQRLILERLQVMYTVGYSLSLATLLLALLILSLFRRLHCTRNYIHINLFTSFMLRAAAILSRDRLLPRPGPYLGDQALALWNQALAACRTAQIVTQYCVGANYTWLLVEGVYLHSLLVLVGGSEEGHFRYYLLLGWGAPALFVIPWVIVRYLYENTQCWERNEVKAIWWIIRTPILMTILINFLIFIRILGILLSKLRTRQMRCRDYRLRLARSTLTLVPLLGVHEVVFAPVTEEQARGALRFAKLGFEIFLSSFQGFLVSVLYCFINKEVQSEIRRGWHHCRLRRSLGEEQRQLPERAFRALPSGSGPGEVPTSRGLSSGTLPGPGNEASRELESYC
In short: as §1

GCGR [2] = target: T3, GCGR (Homo sapiens, UniProt P47871); assay: CreLuc method (CRE-luciferase reporter), 293HEK/pGM-CREB-L-Luc/GCGR pool; assay type: cell-based; settings: 6 h incubation, read-out: EC50 (pM) for each receptor GCGR
T3 construct: expressed in transfected cells
T3 sequence (P47871 26-477, species assumed): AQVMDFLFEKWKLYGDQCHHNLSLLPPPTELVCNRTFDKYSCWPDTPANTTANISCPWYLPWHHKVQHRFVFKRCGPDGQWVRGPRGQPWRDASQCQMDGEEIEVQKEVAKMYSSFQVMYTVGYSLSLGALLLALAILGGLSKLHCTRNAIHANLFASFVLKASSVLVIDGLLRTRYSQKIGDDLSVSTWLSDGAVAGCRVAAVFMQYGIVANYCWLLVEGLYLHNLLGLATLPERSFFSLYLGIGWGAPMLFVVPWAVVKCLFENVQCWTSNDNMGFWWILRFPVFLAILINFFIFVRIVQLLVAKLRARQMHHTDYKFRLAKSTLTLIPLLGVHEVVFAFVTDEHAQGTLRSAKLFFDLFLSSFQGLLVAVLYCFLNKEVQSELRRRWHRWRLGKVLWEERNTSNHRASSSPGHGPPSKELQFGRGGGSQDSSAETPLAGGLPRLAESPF
In short: as §1

GIPR [3] = target: T2, GIPR; assay: cAMP method (HTRF cAMP detection kit), HEK293/pGM-CREB-L-Luc/GIP pool; assay type: cell-based; settings: read-out: EC50 (pM) for each receptor GIPR
Experimental: (§2) 2. Insulinotropic analogues can bind to target receptors on the cell membrane, activate the receptors, and induce release. The activity of the test substance can be determined using the HTRF method with a cAMP detection kit. Therefore, the cAMP method can be used to detect the target peptide derivatives (or polypeptide derivatives, i.e., TG1-TG86) prepared in Example 1 and Example 2. […] The test cell line was selected, treated with cAMP-specific trypsin for digestion. 3 mL of serum-free DMEM culture medium was added, and the cells were pipetted, resuspended, and counted. 5 µL of IBMX (prepared with serum-free DMEM medium, 0.5 mM) and test cells (5 µL/7500 cells/well) were added in a 384-well plate sequentially. The plate was incubated at 37°C under 5% CO2 for 30 min, followed by the addition of cAMP-d2 (5 µL, 1x) and Anti-cAMP-Cryptate (5 µL, 1x). The mixture was kept at room temperature for 1 h, after which the HTRF value was measured using a chemiluminescent microplate reader, and the determination result was recorded. […] Table 4: EC50 values for target peptide derivatives

GCGR [4] = target: T3, GCGR; assay: cAMP method (HTRF cAMP detection kit), HEK293/pGM-CREB-L-Luc/GCG pool; assay type: cell-based; settings: read-out: EC50 (pM) for each receptor GCGR
Experimental: as §2

in vivo = assay: in vivo; set-up: species or system male SD rats; settings: rat
Experimental: The pharmacokinetic behavior of target peptide derivatives (or polypeptide derivatives) prepared in Example 1 and Example 2, i.e., TG1-TG94 in rodents was tested. The specific steps are as follows:
The target peptide derivatives (TG1-TG94) to be tested were administered to male SD rats via subcutaneous injection (SC, 3 mg/kg; drug vehicle: PBS, concentration: 1.5 mg/mL; administration volume: 2 mL) and intravenous injection (IV, 1 mg/kg; drug vehicle: PBS, concentration: 0.5 mg/mL; administration volume: 2 mL) as a single dose, respectively. Whole blood samples were collected from the jugular vein or other appropriate vein at the following time points after administration: for SC, 15 min, 30 min, 1 h, 2 h, 4 h, 6 h, 8 h, 24 h, 48 h, 72 h, 96 h, 120 h, and 168 h; for IV, 5 min, 15 min, 30 min, 1 h, 2 h, 4 h, 8 h, 24 h, 48 h, 72 h, 96 h, 120 h, and 168 h. 0.2 mL of blood was collected and transferred into a labeled EDTA-K2 anticoagulant tube. The tube was gently inverted to ensure thorough mixing of the anticoagulant (EDTA-K2) with the blood and immediately placed on wet ice. Plasma separation was performed as soon as possible by centrifugation under the following conditions: 4°C, 6800xg, for 6 min. The plasma samples were stored in a refrigerator at no higher than -20°C and used for analysis when needed.
Under the condition of yellow light in an ice-water bath, except for blank samples, 300 µL of precipitant containing an internal standard was added to a 96-well plate containing 20 µL of standard curve sample, quality control sample, or unknown sample; 300 µL of acetonitrile was added to the blank sample. The mixture was vortexed, mixed well, and then centrifuged. 150 µL of the supernatant after centrifugation was transferred to a new 96-well plate, and 150 µL of ultrapure water was added and mixed well. The above samples were subjected to quantitative analysis using LC-MS analysis with XB-C18 (2.1 * 100 mm, 3 µm) chromatography for gradient elution. The mobile phases used were: mobile phase A = 0.1% formic acid-water; mobile phase B = acetonitrile. Phoenix WinNonlin software was used to calculate the pharmacokinetic parameters. […] Table 5A: Pharmacokinetic parameters of target peptide derivatives

CC[C@H](C)[C@@H]1NC(=O)[C@H](Cc2ccccc2)NC(=O)[C@@H](NC(=O)C(C)(C)NC(=O)[C@H](CCC(N)=O)NC(=O)[C@H](C)NC(=O)[C@H](CCCCNC(C)=O)NC(=O)[C@H](CCCCN)NC(=O)[C@H](CC(=O)O)NC(=O)[C@H](CC(C)C)NC(=O)[C@](C)(CC(C)C)NC(=O)[C@@H](NC(=O)[C@H](CO)NC(=O)[C@H](Cc2ccc(O)cc2)NC(=O)[C@H](CC(=O)O)NC(=O)[C@H](CO)NC(=O)[C@@H](NC(=O)[C@H](Cc2ccccc2F)NC(=O)[C@@H](NC(=O)CNC(=O)[C@H](CCC(N)=O)NC(=O)C(C)(C)NC(=O)[C@@H](N)Cc2ccc(O)cc2)[C@@H](C)O)[C@@H](C)O)[C@@H](C)CC)CSCC(=O)NCCN(C(=O)CCC(=O)NCCOCCOCC(=O)NCCOCCOCC(=O)NCCCC[C@H](NC(=O)CCCCCCCCCCCCCCCCCCC(=O)O)C(=O)O)CCNC(=O)CSC[C@@H](C(=O)NCC(=O)NCC(=O)N2CCC[C@H]2C(=O)N[C@@H](CO)C(=O)N[C@@H](CO)C(=O)NCC(=O)N[C@@H](C)C(=O)N2CCC[C@H]2C(=O)N2CCC[C@H]2C(=O)N2CCC[C@H]2C(=O)N[C@@H](CO)C(N)=O)NC(=O)[C@H](CC(C)C)NC(=O)[C@H](CC(C)C)NC(=O)[C@H](Cc2ccc(O)cc2)NC(=O)[C@H](CCC(=O)O)NC1=O [TG40]
EC50 (GLP-1R): 33.9 pM | EC50 (GIPR [1]): 12.5 pM | EC50 (GCGR [2]): 92.9 pM | EC50 (GIPR [3]): 3.1 pM | EC50 (GCGR [4]): 2.1 pM | AUC(0-inf) (in vivo; male, SD, iv, 1 mg/kg): 165 µg·h/mL | AUC(0-t) (in vivo; male, SD, iv, 1 mg/kg): 164 µg·h/mL | MRT (in vivo; male, SD, iv, 1 mg/kg): 22.1 h | Vd (in vivo; male, SD, iv, 1 mg/kg): 0.134 L/kg | clearance (in vivo; male, SD, iv, 1 mg/kg): 0.101 mL/min/kg | half-life (in vivo; male, SD, iv, 1 mg/kg): 15 h | bioavailability (in vivo; male, SD, sc): 50% | AUC(0-inf) (in vivo; male, SD, sc, 3 mg/kg): 248 µg·h/mL | AUC(0-t) (in vivo; male, SD, sc, 3 mg/kg): 247 µg·h/mL | CL/F (in vivo; male, SD, sc, 3 mg/kg): 0.205 mL/min/kg | Cmax (in vivo; male, SD, sc, 3 mg/kg): 4770 ng/mL | MRT (in vivo; male, SD, sc, 3 mg/kg): 36.9 h | Tmax (in vivo; male, SD, sc, 3 mg/kg): 24 h | half-life (in vivo; male, SD, sc, 3 mg/kg): 13.1 h | AUC0-t /AUC0-inf (in vivo; iv, 1 mg/kg): 0.997 | Kel (in vivo; iv, 1 mg/kg): 0.0462 h⁻¹ | AUC0-t /AUC0-inf (in vivo; sc, 3 mg/kg): 0.996 | Vz/F (in vivo; sc, 3 mg/kg): 0.232 L/kg

CC[C@H](C)[C@H](NC(=O)[C@H](Cc1ccccc1)NC(=O)[C@H](C)NC(=O)[C@@H]1CSCC(=O)NCCN(C(=O)CCC(=O)NCCOCCOCC(=O)NCCOCCOCC(=O)NCCCC[C@H](NC(=O)CCCCCCCCCCCCCCCCCCC(=O)O)C(=O)O)CCNC(=O)CSC[C@H](NC(=O)[C@](C)(CCCCN)NC(=O)[C@H](CC(=O)O)NC(=O)[C@H](CC(C)C)NC(=O)[C@](C)(CC(C)C)NC(=O)[C@@H](NC(=O)[C@](C)(CO)NC(=O)[C@H](Cc2ccc(O)cc2)NC(=O)[C@H](CC(=O)O)NC(=O)[C@H](CO)NC(=O)[C@@H](NC(=O)[C@H](Cc2ccccc2F)NC(=O)[C@@H](NC(=O)CNC(=O)[C@H](CCC(N)=O)NC(=O)C(C)(C)NC(=O)[C@@H](N)Cc2ccc(O)cc2)[C@@H](C)O)[C@@H](C)O)[C@@H](C)CC)C(=O)N[C@@H](C)C(=O)N[C@@H](CCC(N)=O)C(=O)N1)C(=O)N[C@@H](CCC(=O)O)C(=O)N[C@@H](Cc1ccc(O)cc1)C(=O)N[C@@H](CC(C)C)C(=O)N[C@@H](CC(C)C)C(=O)N[C@@H](C)C(=O)NCC(=O)NCC(=O)N1CCC[C@H]1C(=O)N[C@@H](CO)C(=O)N[C@@H](CO)C(=O)NCC(=O)N[C@@H](C)C(=O)N1CCC[C@H]1C(=O)N1CCC[C@H]1C(=O)N1CCC[C@H]1C(=O)N[C@@H](CO)C(N)=O [TG62] (H-Y[Aib]QGT[Phe(2-F)]TSDY[αMeS]I[αMeL]LD[αMeK]CAQCAFIEYLLAGGPSSGAPPPS-NH2; linker 17-20 via X1)
EC50 (GLP-1R): 371 pM | EC50 (GIPR [1]): 27.9 pM | EC50 (GCGR [2]): 783 pM | EC50 (GIPR [3]): 6 pM | EC50 (GCGR [4]): 62.2 pM
